O=Cc1cc(Br)c(O)c(Br)c1
solubility (mole fraction) (in 1,4-dioxane, 288.15 K): 0.0128 | solubility (mole fraction) (in 1,4-dioxane, 293.15 K): 0.0143 | solubility (mole fraction) (in 1,4-dioxane, 298.15 K): 0.0161 | solubility (mole fraction) (in 1,4-dioxane, 303.15 K): 0.0183 | solubility (mole fraction) (in 1,4-dioxane, 308.15 K): 0.0208 | solubility (mole fraction) (in 1,4-dioxane, 313.15 K): 0.0236 | solubility (mole fraction) (in 1,4-dioxane, 318.15 K): 0.0266 | solubility (mole fraction) (in 1,4-dioxane, 323.15 K): 0.03 | solubility (mole fraction) (in DMF, 278.15 K): 0.00805 | solubility (mole fraction) (in DMF, 283.15 K): 0.00912 | solubility (mole fraction) (in DMF, 288.15 K): 0.0104 | solubility (mole fraction) (in DMF, 293.15 K): 0.012 | solubility (mole fraction) (in DMF, 298.15 K): 0.0137 | solubility (mole fraction) (in DMF, 303.15 K): 0.0157 | solubility (mole fraction) (in DMF, 308.15 K): 0.0178 | solubility (mole fraction) (in DMF, 313.15 K): 0.0201 | solubility (mole fraction) (in DMF, 318.15 K): 0.0225 | solubility (mole fraction) (in DMF, 323.15 K): 0.0251 | solubility (mole fraction) (in DMSO, 293.15 K): 0.00895 | solubility (mole fraction) (in DMSO, 298.15 K): 0.0101 | solubility (mole fraction) (in DMSO, 303.15 K): 0.0115 | solubility (mole fraction) (in DMSO, 308.15 K): 0.0132 | solubility (mole fraction) (in DMSO, 313.15 K): 0.0152 | solubility (mole fraction) (in DMSO, 318.15 K): 0.0174 | solubility (mole fraction) (in DMSO, 323.15 K): 0.0203 | solubility (mole fraction) (in acetonitrile, 278.15 K): 0.002 | solubility (mole fraction) (in acetonitrile, 283.15 K): 0.00233 | solubility (mole fraction) (in acetonitrile, 288.15 K): 0.00277 | solubility (mole fraction) (in acetonitrile, 293.15 K): 0.00328 | solubility (mole fraction) (in acetonitrile, 298.15 K): 0.00383 | solubility (mole fraction) (in acetonitrile, 303.15 K): 0.00452 | solubility (mole fraction) (in acetonitrile, 308.15 K): 0.00531 | solubility (mole fraction) (in acetonitrile, 313.15 K): 0.00621 | solubility (mole fraction) (in acetonitrile, 318.15 K): 0.00734 | solubility (mole fraction) (in acetonitrile, 323.15 K): 0.0086 | solubility (mole fraction) (in cyclohexane, 283.15 K): 0.000245 | solubility (mole fraction) (in cyclohexane, 288.15 K): 0.000317 | solubility (mole fraction) (in cyclohexane, 293.15 K): 0.000408 | solubility (mole fraction) (in cyclohexane, 298.15 K): 0.000513 | solubility (mole fraction) (in cyclohexane, 303.15 K): 0.000637 | solubility (mole fraction) (in cyclohexane, 308.15 K): 0.000791 | solubility (mole fraction) (in cyclohexane, 313.15 K): 0.000965 | solubility (mole fraction) (in cyclohexane, 318.15 K): 0.00116 | solubility (mole fraction) (in cyclohexane, 323.15 K): 0.00139 | solubility (mole fraction) (in ethanol, 278.15 K): 0.00281 | solubility (mole fraction) (in ethanol, 283.15 K): 0.00314 | solubility (mole fraction) (in ethanol, 288.15 K): 0.00358 | solubility (mole fraction) (in ethanol, 293.15 K): 0.00413 | solubility (mole fraction) (in ethanol, 298.15 K): 0.00477 | solubility (mole fraction) (in ethanol, 303.15 K): 0.00555 | solubility (mole fraction) (in ethanol, 308.15 K): 0.00646 | solubility (mole fraction) (in ethanol, 313.15 K): 0.00742 | solubility (mole fraction) (in ethanol, 318.15 K): 0.00851 | solubility (mole fraction) (in ethanol, 323.15 K): 0.00974 | solubility (mole fraction) (in ethyl acetate, 278.15 K): 0.0055 | solubility (mole fraction) (in ethyl acetate, 283.15 K): 0.00634 | solubility (mole fraction) (in ethyl acetate, 288.15 K): 0.00729 | solubility (mole fraction) (in ethyl acetate, 293.15 K): 0.00845 | solubility (mole fraction) (in ethyl acetate, 298.15 K): 0.0098 | solubility (mole fraction) (in ethyl acetate, 303.15 K): 0.0114 | solubility (mole fraction) (in ethyl acetate, 308.15 K): 0.0131 | solubility (mole fraction) (in ethyl acetate, 313.15 K): 0.015 | solubility (mole fraction) (in ethyl acetate, 318.15 K): 0.0171 | solubility (mole fraction) (in ethyl acetate, 323.15 K): 0.0194 | solubility (mole fraction) (in ethylene glycol, 278.15 K): 0.00234 | solubility (mole fraction) (in ethylene glycol, 283.15 K): 0.00274 | solubility (mole fraction) (in ethylene glycol, 288.15 K): 0.00327 | solubility (mole fraction) (in ethylene glycol, 293.15 K): 0.00397 | solubility (mole fraction) (in ethylene glycol, 298.15 K): 0.00476 | solubility (mole fraction) (in ethylene glycol, 303.15 K): 0.00571 | solubility (mole fraction) (in ethylene glycol, 308.15 K): 0.00675 | solubility (mole fraction) (in ethylene glycol, 313.15 K): 0.00796 | solubility (mole fraction) (in ethylene glycol, 318.15 K): 0.00923 | solubility (mole fraction) (in ethylene glycol, 323.15 K): 0.0107 | solubility (mole fraction) (in isobutanol, 278.15 K): 0.00368 | solubility (mole fraction) (in isobutanol, 283.15 K): 0.00422 | solubility (mole fraction) (in isobutanol, 288.15 K): 0.0049 | solubility (mole fraction) (in isobutanol, 293.15 K): 0.00569 | solubility (mole fraction) (in isobutanol, 298.15 K): 0.00659 | solubility (mole fraction) (in isobutanol, 303.15 K): 0.00762 | solubility (mole fraction) (in isobutanol, 308.15 K): 0.00878 | solubility (mole fraction) (in isobutanol, 313.15 K): 0.01 | solubility (mole fraction) (in isobutanol, 318.15 K): 0.0115 | solubility (mole fraction) (in isobutanol, 323.15 K): 0.0132 | solubility (mole fraction) (in isopropanol, 278.15 K): 0.003 | solubility (mole fraction) (in isopropanol, 283.15 K): 0.00343 | solubility (mole fraction) (in isopropanol, 288.15 K): 0.00399 | solubility (mole fraction) (in isopropanol, 293.15 K): 0.00467 | solubility (mole fraction) (in isopropanol, 298.15 K): 0.00542 | solubility (mole fraction) (in isopropanol, 303.15 K): 0.00629 | solubility (mole fraction) (in isopropanol, 308.15 K): 0.00731 | solubility (mole fraction) (in isopropanol, 313.15 K): 0.00841 | solubility (mole fraction) (in isopropanol, 318.15 K): 0.00966 | solubility (mole fraction) (in isopropanol, 323.15 K): 0.011 | solubility (mole fraction) (in methanol, 278.15 K): 0.00195 | solubility (mole fraction) (in methanol, 283.15 K): 0.0022 | solubility (mole fraction) (in methanol, 288.15 K): 0.00252 | solubility (mole fraction) (in methanol, 293.15 K): 0.00294 | solubility (mole fraction) (in methanol, 298.15 K): 0.00341 | solubility (mole fraction) (in methanol, 303.15 K): 0.00395 | solubility (mole fraction) (in methanol, 308.15 K): 0.00457 | solubility (mole fraction) (in methanol, 313.15 K): 0.00526 | solubility (mole fraction) (in methanol, 318.15 K): 0.00604 | solubility (mole fraction) (in methanol, 323.15 K): 0.00689 | solubility (mole fraction) (in n-butanol, 278.15 K): 0.00412 | solubility (mole fraction) (in n-butanol, 283.15 K): 0.00466 | solubility (mole fraction) (in n-butanol, 288.15 K): 0.00539 | solubility (mole fraction) (in n-butanol, 293.15 K): 0.00624 | solubility (mole fraction) (in n-butanol, 298.15 K): 0.00726 | solubility (mole fraction) (in n-butanol, 303.15 K): 0.00846 | solubility (mole fraction) (in n-butanol, 308.15 K): 0.0098 | solubility (mole fraction) (in n-butanol, 313.15 K): 0.0112 | solubility (mole fraction) (in n-butanol, 318.15 K): 0.0128 | solubility (mole fraction) (in n-butanol, 323.15 K): 0.0147 | solubility (mole fraction) (in n-octanol, 278.15 K): 0.00788 | solubility (mole fraction) (in n-octanol, 283.15 K): 0.00908 | solubility (mole fraction) (in n-octanol, 288.15 K): 0.0105 | solubility (mole fraction) (in n-octanol, 293.15 K): 0.0121 | solubility (mole fraction) (in n-octanol, 298.15 K): 0.0139 | solubility (mole fraction) (in n-octanol, 303.15 K): 0.016 | solubility (mole fraction) (in n-octanol, 308.15 K): 0.0184 | solubility (mole fraction) (in n-octanol, 313.15 K): 0.021 | solubility (mole fraction) (in n-octanol, 318.15 K): 0.024 | solubility (mole fraction) (in n-octanol, 323.15 K): 0.0275 | solubility (mole fraction) (in n-pentanol, 278.15 K): 0.00662 | solubility (mole fraction) (in n-pentanol, 283.15 K): 0.00744 | solubility (mole fraction) (in n-pentanol, 288.15 K): 0.00859 | solubility (mole fraction) (in n-pentanol, 293.15 K): 0.0101 | solubility (mole fraction) (in n-pentanol, 298.15 K): 0.0116 | solubility (mole fraction) (in n-pentanol, 303.15 K): 0.0135 | solubility (mole fraction) (in n-pentanol, 308.15 K): 0.0155 | solubility (mole fraction) (in n-pentanol, 313.15 K): 0.0176 | solubility (mole fraction) (in n-pentanol, 318.15 K): 0.02 | solubility (mole fraction) (in n-pentanol, 323.15 K): 0.0226 | solubility (mole fraction) (in n-propanol, 278.15 K): 0.00339 | solubility (mole fraction) (in n-propanol, 283.15 K): 0.00379 | solubility (mole fraction) (in n-propanol, 288.15 K): 0.00434 | solubility (mole fraction) (in n-propanol, 293.15 K): 0.00499 | solubility (mole fraction) (in n-propanol, 298.15 K): 0.00579 | solubility (mole fraction) (in n-propanol, 303.15 K): 0.0067 | solubility (mole fraction) (in n-propanol, 308.15 K): 0.00779 | solubility (mole fraction) (in n-propanol, 313.15 K): 0.00897 | solubility (mole fraction) (in n-propanol, 318.15 K): 0.0103 | solubility (mole fraction) (in n-propanol, 323.15 K): 0.0118 | solubility (mole fraction) (in water, 278.15 K): 4.91e-05 | solubility (mole fraction) (in water, 283.15 K): 6.34e-05 | solubility (mole fraction) (in water, 288.15 K): 8.16e-05 | solubility (mole fraction) (in water, 293.15 K): 0.000103 | solubility (mole fraction) (in water, 298.15 K): 0.000131 | solubility (mole fraction) (in water, 303.15 K): 0.000167 | solubility (mole fraction) (in water, 308.15 K): 0.000213 | solubility (mole fraction) (in water, 313.15 K): 0.000267 | solubility (mole fraction) (in water, 318.15 K): 0.000332 | solubility (mole fraction) (in water, 323.15 K): 0.000406

Reference: BigSolDB 2.1
